Reference: PubChem BioAssay AID256 (DTP/NCI, 2004)
“And” between values parts separate entries of the source, which are not always exact repeats. Equal entries are not always repeated. Toxic doses and inconclusive results are not listed. Rule for the calls: active = survival T/C of 150% or more; inactive = T/C below 125% in these data.

System: CD2F1 mice, L1210 leukemia ip, survival T/C
Test: NCI In Vivo Anticancer Drug Screen. Data for tumor model L1210 Leukemia (intraperitoneal) in CD2F1 (CDF1) mice
Conditions: higher = longer survival
In short: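 Tumor-bearing mice (transplanted tumor) were split into treated and vehicle control groups, and the measured endpoint of each treated group was divided by that of its vehicle controls.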

[1] = endpoint: mean survival time, dose: 100.0 mg/kg/injection, schedule: Q04DX003 (ip), vehicle: saline with Tween-80
[2] = endpoint: mean survival time, dose: 100.0 mg/kg/injection, schedule: Q01DX009 (ip), vehicle: saline with Tween-80
[3] = endpoint: mean survival time, dose: 400.0 mg/kg/injection, schedule: Q01DX009 (ip), vehicle: saline with Tween-80
[4] = endpoint: mean survival time, dose: 200.0 mg/kg/injection, schedule: Q01DX009 (ip), vehicle: saline with Tween-80
[5] = endpoint: mean survival time, dose: 50.0 mg/kg/injection, schedule: Q01DX009 (ip), vehicle: saline with Tween-80
[6] = endpoint: mean survival time, dose: 200.0 mg/kg/injection, schedule: Q04DX003 (ip), vehicle: saline with Tween-80
[7] = endpoint: mean survival time, dose: 400.0 mg/kg/injection, schedule: Q04DX003 (ip), vehicle: saline with Tween-80
[8] = endpoint: mean survival time, dose: 12.5 mg/kg/injection, schedule: Q01DX009 (ip), vehicle: saline with Tween-80
[9] = endpoint: mean survival time, dose: 25.0 mg/kg/injection, schedule: Q01DX009 (ip), vehicle: saline with Tween-80

Measured: T/C

CCOc1ccc([N+](=O)[O-])cc1[N+](=O)[O-]
inactive: endpoint: mean survival time, dose: 25.0 mg/kg/injection, schedule: Q04DX003 (ip), vehicle: saline with Tween-80 93 % of control | endpoint: mean survival time, dose: 50.0 mg/kg/injection, schedule: Q04DX003 (ip), vehicle: saline with Tween-80 98 % of control | [1] 94 % of control

COc1ccc(NC(=O)Oc2ccc(Cl)c(C)c2)cc1
inactive: [2] 89 % of control | [3] 92 % of control

CC(C)(S)CNCCSC(=O)c1ccccc1
inactive: [2] 103 % of control | [4] 100 % of control | [3] 94 % of control

OCc1ccc[n+](CCc2c[nH]c3ccccc23)c1
inactive: [5] 104 % of control | [2] 95 % of control

Cc1ccc2snc(C(=O)O)c2c1[N+](=O)[O-]
inactive: [1] 98 % of control | [6] 104 % of control | [7] 103 % of control

Cc1ccc(Nc2nc(N)nc(N)c2N=O)cc1C
inactive: endpoint: mean survival time, dose: 50.0 mg/kg/injection, schedule: Q01DX001 (ip), vehicle: Klucel (hydroxypropylcellulose) (HPC) 90 % of control | endpoint: mean survival time, dose: 100.0 mg/kg/injection, schedule: Q01DX001 (ip), vehicle: Klucel (hydroxypropylcellulose) (HPC) 87 % of control | endpoint: mean survival time, dose: 200.0 mg/kg/injection, schedule: Q01DX001 (ip), vehicle: Klucel (hydroxypropylcellulose) (HPC) 98 % of control

CC/C(=C(/CC)c1ccc(OP(N)(=O)N(CCCl)CCCl)cc1)c1ccc(OP(N)(=O)N(CCCl)CCCl)cc1 (stereo unspecified)
inactive: endpoint: mean survival time, dose: 90.0 mg/kg/injection, schedule: Q01DX001 (ip), vehicle: DMSO 100 % of control | endpoint: mean survival time, dose: 133.0 mg/kg/injection, schedule: Q01DX001 (ip), vehicle: DMSO 98 % of control | endpoint: mean survival time, dose: 200.0 mg/kg/injection, schedule: Q01DX001 (ip), vehicle: DMSO 102 % of control | endpoint: mean survival time, dose: 300.0 mg/kg/injection, schedule: Q01DX001 (ip), vehicle: DMSO 113 % of control

Cc1ccc(/C(C#N)=C2C=C(Br)/C(=N\O)C=C/2Cl)cc1
inactive: endpoint: mean survival time, dose: 25.0 mg/kg/injection, schedule: Q01DX009 (ip), vehicle: acetone 96 % of control | endpoint: mean survival time, dose: 50.0 mg/kg/injection, schedule: Q01DX009 (ip), vehicle: acetone 98 % of control | endpoint: mean survival time, dose: 100.0 mg/kg/injection, schedule: Q01DX009 (ip), vehicle: acetone 98 % of control

O=[N+]([O-])c1ccc(SSC(Cl)(Cl)Cl)cc1
inactive: endpoint: mean survival time, dose: 6.25 mg/kg/injection, schedule: Q01DX009 (ip), vehicle: saline with Tween-80 101 % of control | [8] 101 % of control | [9] 101 % of control | [5] 100 % of control

Clc1ccccc1/C=C1/c2ccccc2-c2nc3ccccc3cc21
inactive: [2] 97 % of control | [1] 89 % of control | [4] 105 % of control | [6] 100 % of control | [3] 102 % of control | [7] 95 % of control

CCCC(=O)/C=C\c1ccccc1
inactive: endpoint: mean survival time, dose: 50.0 mg/kg/injection, schedule: Q04DX002 (ip), vehicle: saline with Tween-80 102 % of control | endpoint: mean survival time, dose: 100.0 mg/kg/injection, schedule: Q04DX002 (ip), vehicle: saline with Tween-80 102 % of control | endpoint: mean survival time, dose: 200.0 mg/kg/injection, schedule: Q04DX002 (ip), vehicle: saline with Tween-80 91 % of control | endpoint: mean survival time, dose: 400.0 mg/kg/injection, schedule: Q04DX002 (ip), vehicle: saline with Tween-80 94 % of control

Nc1ncnc2c1nnn2Cc1ccco1
inactive: endpoint: mean survival time, dose: 12.5 mg/kg/injection, schedule: Q01DX005 (ip), vehicle: other 96 % of control | endpoint: mean survival time, dose: 25.0 mg/kg/injection, schedule: Q01DX005 (ip), vehicle: other 89 % of control | endpoint: mean survival time, dose: 50.0 mg/kg/injection, schedule: Q01DX005 (ip), vehicle: other 89 % of control | endpoint: mean survival time, dose: 100.0 mg/kg/injection, schedule: Q01DX005 (ip), vehicle: other 93 % of control | endpoint: mean survival time, dose: 200.0 mg/kg/injection, schedule: Q01DX005 (ip), vehicle: other 96 % of control

O=C(CNC(=O)Nc1cccc(C(F)(F)F)c1)N/N=C/c1ccccc1Cl
inactive: [8] 87 % of control | [9] 87 % of control | [5] 87 % of control and 96 % of control | [2] 103 % of control | [4] 100 % of control

O=C(O)C1=NN(c2cccc([N+](=O)[O-])c2)C(=O)C1
inactive: [2] 114 % of control | [1] 98 % of control | [4] 101 % of control | [6] 104 % of control | [3] 95 % of control | [7] 102 % of control

COC(=O)Nc1nc2ccc(C(=O)c3ccccc3)cc2[nH]1
inactive: endpoint: mean survival time, dose: 2.0 mg/kg/injection, schedule: Q04DX003 (ip), vehicle: saline with Tween-80 94 % of control | endpoint: mean survival time, dose: 4.0 mg/kg/injection, schedule: Q04DX003 (ip), vehicle: saline with Tween-80 94 % of control | endpoint: mean survival time, dose: 8.0 mg/kg/injection, schedule: Q04DX003 (ip), vehicle: saline with Tween-80 91 % of control | endpoint: mean survival time, dose: 16.0 mg/kg/injection, schedule: Q04DX003 (ip), vehicle: saline with Tween-80 100 % of control and 112 % of control

NC1CCCCC1N.Nc1c(N=Nc2ccc(-c3ccc(N=Nc4cc(S(=O)(=O)[O-])c5ccccc5c4N)cc3)cc2)cc(S(=O)(=O)[O-])c2ccccc12.[OH3+].[OH3+].[Pt+4]
inactive: endpoint: median survival time, dose: 3.12 mg/kg/injection, schedule: Q04DX003 (ip), vehicle: saline with Tween-80 108 % of control | endpoint: median survival time, dose: 6.25 mg/kg/injection, schedule: Q04DX003 (ip), vehicle: saline with Tween-80 100 % of control | endpoint: median survival time, dose: 12.5 mg/kg/injection, schedule: Q04DX003 (ip), vehicle: saline with Tween-80 102 % of control | endpoint: median survival time, dose: 25.0 mg/kg/injection, schedule: Q04DX003 (ip), vehicle: saline with Tween-80 98 % of control | endpoint: median survival time, dose: 50.0 mg/kg/injection, schedule: Q04DX003 (ip), vehicle: saline with Tween-80 106 % of control | endpoint: median survival time, dose: 100.0 mg/kg/injection, schedule: Q04DX003 (ip), vehicle: saline with Tween-80 97 % of control | endpoint: median survival time, dose: 200.0 mg/kg/injection, schedule: Q04DX003 (ip), vehicle: saline with Tween-80 100 % of control

O=c1[nH]nc([O-])c2c1[n+](Cc1ccccc1)cn2Cc1ccccc1
inactive: endpoint: mean survival time, dose: 9.4 mg/kg/injection, schedule: Q01DX005 (ip), vehicle: water 94 % of control | endpoint: mean survival time, dose: 18.8 mg/kg/injection, schedule: Q01DX005 (ip), vehicle: water 98 % of control | endpoint: mean survival time, dose: 37.5 mg/kg/injection, schedule: Q01DX005 (ip), vehicle: water 91 % of control | endpoint: mean survival time, dose: 75.0 mg/kg/injection, schedule: Q01DX005 (ip), vehicle: water 88 % of control

c1ccc(C2=C(c3ccccn3)N=c3ccccc3=c3ccccc3=N2)nc1
inactive: endpoint: mean survival time, dose: 100.0 mg/kg/injection, schedule: Q01DX001 (ip), vehicle: saline with Tween-80 101 % of control | endpoint: mean survival time, dose: 200.0 mg/kg/injection, schedule: Q01DX001 (ip), vehicle: saline with Tween-80 111 % of control | endpoint: mean survival time, dose: 400.0 mg/kg/injection, schedule: Q01DX001 (ip), vehicle: saline with Tween-80 93 % of control

c1ccc(NC2CCN(C3(c4ccccc4)CCCCC3)CC2)cc1
inactive: endpoint: mean survival time, dose: 25.0 mg/kg/injection, schedule: Q04DX002 (ip), vehicle: saline 97 % of control | endpoint: mean survival time, dose: 50.0 mg/kg/injection, schedule: Q04DX002 (ip), vehicle: saline 94 % of control

Nc1ccc(N=Nc2cccnc2)cc1
inactive: endpoint: mean survival time, dose: 100.0 mg/kg/injection, schedule: Q04DX002 (ip), vehicle: other 103 % of control | endpoint: mean survival time, dose: 200.0 mg/kg/injection, schedule: Q04DX002 (ip), vehicle: other 88 % of control

[N-]=[N+]=CC(=O)NCC(=O)N/N=C/c1ccccn1
inactive: endpoint: mean survival time, dose: 100.0 mg/kg/injection, schedule: Q01DX009 (ip), vehicle: saline sonified 104 % of control | [1] 97 % of control | endpoint: mean survival time, dose: 200.0 mg/kg/injection, schedule: Q01DX009 (ip), vehicle: saline sonified 104 % of control | [6] 98 % of control | endpoint: mean survival time, dose: 400.0 mg/kg/injection, schedule: Q01DX009 (ip), vehicle: saline sonified 97 % of control | [7] 94 % of control
